# Experimental data taken from US20100310518A1, “Combinations of Flubendiamide and Beneficial Species” (Bayer CropScience AG, priority 2009, published 2010).
# What was measured:
# Plutella xylostella = Plutella xylostella test (drench application on rock wool); type: in vivo; conditions: for Kill in % after 7^d: 1 mg of ai/plant, drench, cabbage plants
# Method: To produce a suitable preparation of active compound, 1 part by weight of active compound is mixed with the stated amounts of solvent and emulsifier, and the concentrate is diluted with water to the desired concentration.
# Cabbage plants (Brassica oleracea) are watered with an active compound preparation of the desired concentration and infected with larvae of the diamondback moth (Plutella xylostella).
# After the desired period of time, the kill of the pest in % is determined 100% means that all caterpillars have been killed; 0% means that none of the caterpillars have been killed.
# Myzus persicae = Myzus persicae test (drench application) on cabbage plants, with predatory bugs added; type: in vivo; conditions: flubendiamide alone, 1 mg of ai/l soil, cabbage plants (Brassica oleracea)
# Source text: The expected action for a given combination of two active compounds can be calculated as follows, using the formula of S. R. Colby, Weeds 15 (1967), 20-22:
# • X is the kill rate, expressed as % of the untreated control, when employing active compound A at an application rate of m g/ha, m mg of ai/plant or in a concentration of m ppm, • Y is the kill rate, expressed as % of the untreated control, when employing the beneficial species at an application rate of n animals or n units, and • E is the kill rate, expressed as % of the untreated control, when employing active compound
# A and beneficial species B at an application rate of m ppm, m mg of ai/plant or g/ha and n animals or units,
# If the actual insecticidal or acaricidal kill rate exceeds the calculated value, the kill of the combination is superadditive, i.e. a synergistic effect is present. In this case, the actually observed kill rate must exceed the value calculated using the above formula for the expected kill rate (E). […]
# After the application, the predatory bugs (Macrolophus caliginosus) are added in a defined amount. After the desired period of time, the kill of the pest in % is determined 100% means that all of the aphids have been destroyed; 0% means that none of the aphids have been destroyed.
# The kill rates determined are entered into Colby's formula (see above).
structure (smiles),measurement,setting,value
"Cc1cc(C(F)(C(F)(F)F)C(F)(F)F)ccc1NC(=O)c1cccc(I)c1C(=O)NC(C)(C)CS(C)(=O)=O [flubendiamide, 3-iodo-N′-(2-mesyl-1,1-dimethylethyl)-N-{4-[1,2,2,2-tetrafluoro-1-(trifluoromethyl)ethyl]-o-tolyl}phthalamide]",systemic efficacy,Plutella xylostella; applied to soil-less substrates,surprisingly good systemic efficacy
same,Kill in % after 7^d,Plutella xylostella; on rock wool,97%
same,Kill in % after 7^d,Plutella xylostella; on sandy loam (prior art),40%
same,Kill in % after 4^h,Myzus persicae,45%
